Measurements reported in patent publication US9951314B2, “Differentiation of human embryonic stem cells” (Janssen Biotech, Inc., priority 2010, dated 2018).

Assays:
[1] = system: human embryonic stem (hES) cell line H1; conditions: MCDB-131 with 3.7 g/l versus 1 g/l bicarbonate
Experimental: Cells of the human embryonic stem (hES) cell line H1 at passage 46 (p46) were seeded as cell colonies to [sequence] (1:30 dilution) coated dishes at a 1 to 3 passage ratio by lifting cells with Dispase (Catalog #17105-041, Invitrogen, CA) and plating the cells in MEF-CM with 20 ng/ml of FGF2. The media was changed daily with fresh MEF-CM with 20 ng/ml of FGF2, until initiation of differentiation into definitive endoderm (DE) as follows: • a. MCDB-131 (Catalog #10372-019, Invitrogen, CA) medium supplemented with 2% fatty acid-free BSA (Catalog #68700, Proliant, IA), 1× GlutaMax™ (Catalog #35050-079, Invitrogen, Ca) and 100 ng/ml activin A (R&D Systems, MN) plus 20 ng/ml WNT-3a (Catalog #1324-WN-002, R&D Systems, MN) for one day, followed by treatment with MCDB-131 supplemented with 2% BSA, GlutaMax™, and 100 ng/ml activin A each day for an additional three days; or • b.
At day 4, samples were collected for FACS and gene expression analysis using real-time PCR, and counted by ViaCount® (Guava®, Millipore, Billerica, Mass.).

[2] = system: human embryonic stem cell line H1; assay: Differentiation of H1 cells to definitive endoderm in DMEM with low or high glucose; flow cytometry and qRT-PCR (Example 2); type: cell-based; conditions: for cells positive for CXCR4: flow cytometry
Experimental: Similar glucose related effects on differentiation were also observed in cultures differentiated with DMEM containing either 5.5 mM (low) or 25 mM (high) glucose concentration (Cat #s 10567-014 and 21063-029, Invitrogen, CA). As described above, for controls, cells were seeded as single cells, cultured 3 days in MEF conditioned media and differentiated in MCDB-131 with 5.5 mM or 25 mM glucose supplemented media, or in DMEM high or low glucose media supplemented with 2% fatty acid free BSA, 100 ng/ml activin A, and 20 ng/ml WNT-3a on the first day, and 2% fatty acid free BSA and 100 ng/ml activin A for the next three days with daily media change. Similar to results with MCDB-131 media, where elevated glucose inhibits definitive endoderm formation as compared to low glucose media treated cells, we observed that a high glucose concentration in DMEM reduced hES cell differentiation. By flow cytometry, following differentiation to definitive endoderm, 88.6% of cells were positive for CXCR4 in media containing 5.5 mM glucose versus 80% CXCR4 positive cells in media containing 25 mM glucose. Additionally, markers of differentiation to definitive endoderm as measured by qRT-PCR (SOX17) were decreased while markers of undifferentiated cells (OCT4) or alternative differentiation fates (CDX2) were increased (FIG. 5) in cells fed media containing high glucose versus those fed low glucose media. This effect was due at least in part to the pH of the media as we noted that over the four day differentiation, media pH dropped after 48 hours of differentiation day. Furthermore, the higher the starting and ending pH of culture media (8.1>pH>7.6) (FIG. 6) during definitive endoderm formation, the more complete the conversion to definitive endoderm.

[3] = system: human embryonic stem cell line H1; assay: Differentiation of H1 cells to definitive endoderm in MCDB-131 with added glucose; FACS, real-time PCR, ViaCount at day 4 (Example 2); type: cell-based
Experimental: Cells of the human embryonic stem cell line H1 at passage 41 (p41) were lifted by TrypLE (Catalog #12604-013, Invitrogen, CA) and seeded as single cells at a density of 100,000 cells/cm^2 on MATRIGEL® coated dishes (1:30 dilution) in MEF-CM (mouse embryonic fibroblast conditioned media) supplemented with 20 ng/ml of FGF2 (Catalog #100-18B, PeproTech, NJ) and 10 μM of Y-27632 (a Rho Kinase Inhibitor, Catalog #Y0503, Sigma, MO). […] The cultures were differentiated into cells expressing markers characteristic of the definitive endoderm lineage 72 hrs post as follows: • a. […] MCDB-131 medium supplemented with 2% BSA, sodium bicarbonate, GlutaMax™, 100 ng/ml activin A, and either 0, 5, 10, 15, 20, or 25 mM of glucose for an additional three days.
However, these increases in cell number and CXCR4 were offset by a reduction in total cell viability (FIG. 2B).
These clustered cells were subsequently less evenly dispersed on the culture surface than populations of cells cultured in the basal level of glucose.

[4] = high glucose versus low glucose media
[5] = increased glucose concentration, clustered cells, real-time PCR

Row | Compound | CD9 expression levels [1] | CXCR4 expression [1] | CDX2 expression (qRT-PCR) [2, 4] | OCT4 expression (qRT-PCR) [2, 4] | SOX17 expression (qRT-PCR) [2, 4] | cells positive for CXCR4 ([2]; media containing 5.5 mM glucose) [%] | cells positive for CXCR4 ([2]; media containing 25 mM glucose) [%] | CXCR4 expression ([3]; additional 5 mM glucose (10.5 mM final), MCDB-131, day 4) | cell number ([3]; additional 10 mM glucose (15.5 mM final), MCDB-131, day 4) | SOX17 positive cells ([3]; basal level of glucose (5.5 mM), MCDB-131) | CD9 expression [3, 5] | MNX1 (HLXB9) gene expression [3, 5] | OCT4 expression [3, 5] | SOX7 expression [3, 5] | total cell viability ([3]; supplemented glucose (10.5 to 15.5 mM final), MCDB-131, day 4)
1 | O=C([O-])O.[Na+] [Sodium Bicarbonate] | lower | significantly higher |  |  |  |  |  |  |  |  |  |  |  |  | 
2 | O=C[C@H](O)[C@@H](O)[C@H](O)[C@H](O)CO [glucose] |  |  | increased | increased | decreased | 88.6 | 80 | modest increase | modest increase | almost every cell in the culture was SOX17 positive | slight increase | decrease | slight increase | slight increase | reduction
